Measured values published in patent publication US20180244611A1, “Modulators of the Cystic Fibrosis Transmembrane Conductance Regulator Protein and Methods of Use” (AbbVie S.à.r.l., priority 2017, published 2018).
pEC50: −log10 of the molar value.

Legend:
[1] = molecular target: T1, F508delCFTR (Homo sapiens, UniProt P13569, DEL508-508); assay: Cell Surface Expression-Horse Radish Peroxidase (CSE-HRP) assay, test compound with co-corrector; type: cell-based; conditions: with 2 μM co-corrector; for Maximum % activity (with co-corrector): maximum at any tested concentration, normalized to positive control;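 as to Maximum % activity (with co-corrector): percent of 2 µM positive control corrector over DMSO; co-corrector is that same compound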
T1 construct: expressed in transfected cells; host or cells: CFBE41o- human lung-derived epithelial cells (CFBE41o-F508delCFTR-HRP), doxycycline-inducible
Experimental: (§1) Cell Surface Expression-Horse Radish Peroxidase (CSE-HRP) Assay
(§2) A cellular assay for measuring the F508delCFTR cell surface expression after correction with test compounds either without or with a co-corrector (2 μM of 3-[(2R,4R)-4-({[1-(2,2-difluoro-1,3-benzodioxol-5-yl)cyclopropyl]carbonyl}amino)-7-methoxy-3,4-dihydro-2H-chromen-2-yl]benzoic acid), was developed in human lung derived epithelial cell line (CFBE41o-) (Veit G et al, (2012) Mol Biol Cell. 23(21): 4188-4202). The development was achieved by expressing the F508delCFTR mutation along with a horseradish peroxidase (HRP) in the fourth exofacial loop, and then measuring the HRP activity using luminescence readout from these cells, CFBE41o-F508delCFTR-HRP, that were incubated overnight with the test corrector compounds, either without or with the co-corrector. For this primary assay, the CFBE41o-F508delCFTR-HRP cells were plated in 384-well plates (Greiner Bio-one; Cat 781080) at 4,000 cells/well along with 0.5 μg/mL doxycycline to induce the F508delCFTR-HRP expression and further incubated at 37° C., 5% CO2 for 72 hours. The test compounds were then added either without or with a co-corrector at the required concentrations and further incubated for 18-24 hours at 33° C. The highest concentration tested was 20 μM with an 8-point concentration response curve using a 3-fold dilution in both the test compound without or with the co-corrector. Three replicate plates were run to determine one EC50. All plates contained negative controls (dimethyl sulfoxide, DMSO) and positive control (2 μM of 3-[(2R,4R)-4-({[1-(2,2-difluoro-1,3-benzodioxol-5-yl)cyclopropyl]carbonyl}amino)-7-methoxy-3,4-dihydro-2H-chromen-2-yl]benzoic acid) as well as on-plate concentration response of the positive control. Post incubation, the plates were washed 5× times with Dulbecco's phosphate buffered saline (DPBS), followed by the addition of the HRP substrate, luminol (50 μL), and measuring the HRP activity using luminescence readout on EnVision® Multilabel Plate Reader (Perkin Elmer; product number 2104-0010). The raw counts from the experiment were analyzed using Accelrys® Assay Explorer v3.3.
(§3) Z′ greater than 0.5 was used as passing quality control criteria for the plates.
(§4) 1−[3*SDPositive Control+3*SDNegative Control/Absolute (MeanPositive Control−MeanNegative Control)]
(§5) wherein “SD” is standard deviation.
(§6) The % activity measured at each of the 8 test concentrations of the test compound added either without or with a co-corrector (2 μM of 3-[(2R,4R)-4-({[1-(2,2-difluoro-1,3-benzodioxol-5-yl)cyclopropyl]carbonyl}amino)-7-methoxy-3,4-dihydro-2H-chromen-2-yl]benzoic acid) was normalized to the on-plate positive control using the following formulae:
activity (Test compound with co-corrector)=[(test compound with co-corrector response−DMSO response)/(positive control response−DMSO response)]*100
(§7) The maximum % activity achieved for the test compound either without or with a co-corrector at any tested concentration is presented in Table 1 along with the respective EC50's calculated using the following general sigmoidal curve with variable Hill slope equation (described as Model 42 in the Accelrys® Assay Explorer v3.3 software):
(§8) General sigmoidal curve with concentration, response, top, bottom, EC50 and Hill slope. This model describes a sigmoidal curve with an adjustable baseline, a. The equation can be used to fit curves where response is either increasing or decreasing with respect to the independent variable, “x”.
“x” is a concentration of drug under test. “y” is the response. “a” is the maximum response, and “d” is the minimum response “c” is the inflection point (EC50) for the curve. That is, “y” is halfway between the lower and upper asymptotes when x=c. “b” is the slope-factor or Hill coefficient. The sign of b is positive when the response increases with increasing dose and is negative when the response decreases with increasing dose (inhibition).

[2] = molecular target: T1, F508delCFTR; assay: Cell Surface Expression-Horse Radish Peroxidase (CSE-HRP) assay, test compound without co-corrector; type: cell-based; conditions: for pEC50: test compound without co-corrector;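 as to Maximum % activity (without co-corrector): percent of on-plate 2 µM positive control corrector response over DMSO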
Experimental: as §1, §2, §3, §4, §5, §6
% activity (Test compound without co-corrector)=[(test compound without co-corrector response−DMSO response)/(positive control response−DMSO response)]*100%
as §7, §8
“x” is a concentration of drug under test. “y” is the response. “a” is the maximum response, and “d” is the minimum response “c” is the inflection point (EC50) for the curve. That is, “y” is halfway between the lower and upper asymptotes when x=c. “b” is the slope-factor or Hill coefficient. The sign of b is positive when the response increases with increasing dose and is negative when the response decreases with increasing dose (inhibition). The data is presented with the qualifiers shown below: […]

[3] = maximum at any tested concentration, normalized to positive control, without co-corrector

T1 sequence (P13569 with tags, fused parts or gaps DEL508-508): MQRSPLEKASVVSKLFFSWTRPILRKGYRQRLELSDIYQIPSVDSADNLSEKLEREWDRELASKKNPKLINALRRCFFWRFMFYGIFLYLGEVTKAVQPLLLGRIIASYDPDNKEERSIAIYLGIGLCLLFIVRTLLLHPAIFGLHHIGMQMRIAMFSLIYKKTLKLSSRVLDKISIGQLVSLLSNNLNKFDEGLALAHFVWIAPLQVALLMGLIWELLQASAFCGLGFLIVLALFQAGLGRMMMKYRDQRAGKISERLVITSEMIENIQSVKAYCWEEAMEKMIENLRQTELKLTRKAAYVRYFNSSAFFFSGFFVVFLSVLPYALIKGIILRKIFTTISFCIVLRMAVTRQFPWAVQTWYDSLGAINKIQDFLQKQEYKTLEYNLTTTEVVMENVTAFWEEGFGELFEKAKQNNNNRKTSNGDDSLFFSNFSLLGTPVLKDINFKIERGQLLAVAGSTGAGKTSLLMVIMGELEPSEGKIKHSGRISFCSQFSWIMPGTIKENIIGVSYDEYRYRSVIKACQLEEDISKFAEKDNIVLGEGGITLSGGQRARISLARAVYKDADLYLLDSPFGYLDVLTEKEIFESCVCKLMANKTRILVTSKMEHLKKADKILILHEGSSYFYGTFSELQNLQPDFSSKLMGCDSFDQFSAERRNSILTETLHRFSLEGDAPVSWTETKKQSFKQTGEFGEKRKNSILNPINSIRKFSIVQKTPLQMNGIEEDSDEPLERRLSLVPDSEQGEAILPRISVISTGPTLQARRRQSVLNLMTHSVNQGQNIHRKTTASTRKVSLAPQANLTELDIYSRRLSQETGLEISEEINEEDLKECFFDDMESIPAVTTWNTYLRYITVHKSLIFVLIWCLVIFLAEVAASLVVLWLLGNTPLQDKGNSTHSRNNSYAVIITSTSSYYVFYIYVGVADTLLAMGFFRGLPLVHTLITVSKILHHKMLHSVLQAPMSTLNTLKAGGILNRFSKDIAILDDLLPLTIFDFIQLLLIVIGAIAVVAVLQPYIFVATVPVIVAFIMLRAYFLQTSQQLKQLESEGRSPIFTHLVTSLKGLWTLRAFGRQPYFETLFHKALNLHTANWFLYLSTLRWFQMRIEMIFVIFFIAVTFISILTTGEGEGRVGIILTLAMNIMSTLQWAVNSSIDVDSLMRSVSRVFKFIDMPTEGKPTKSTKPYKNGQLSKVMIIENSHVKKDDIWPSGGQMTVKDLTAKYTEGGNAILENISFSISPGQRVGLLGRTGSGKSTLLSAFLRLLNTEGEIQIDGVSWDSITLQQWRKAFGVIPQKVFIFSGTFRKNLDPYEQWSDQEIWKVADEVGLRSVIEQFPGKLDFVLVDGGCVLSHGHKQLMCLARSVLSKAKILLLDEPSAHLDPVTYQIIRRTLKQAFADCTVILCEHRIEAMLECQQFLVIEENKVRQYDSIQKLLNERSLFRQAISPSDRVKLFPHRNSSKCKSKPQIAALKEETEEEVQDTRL

| Compound | Maximum % activity (with co-corrector) [1] | pEC50 [1] | Maximum % activity (without co-corrector) [2, 3] | pEC50 [2] | Emax [2, 3] [%] |
| --- | --- | --- | --- | --- | --- |
| 2-cyclobutyl-5-methoxy-N-(1-methyl-1H-benzimidazole-7-sulfonyl)bicyclo[4.2.0]octa-1,3,5-triene-7-carboxamide [Example I-134] | +++ (≥350) | > 5.52 | +++ (≥150) | > 5.52 |  |
| COc1ccc(Br)c2c1[C@@H](C(=O)NS(=O)(=O)c1cccc3ncccc13)CCC2 (single isomer, unassigned) [Example I-62] | +++ (≥350) | > 5.52 |  | 5.00 to 5.52 | ≥ 150 |
| COc1ccc(Br)c2c1[C@H](C(=O)NS(=O)(=O)c1cccc3ncccc13)CCC2 (single isomer, unassigned) [Example I-63] | +++ (≥350) | > 5.52 |  | > 5.52 | ≥ 150 |
| COc1ccc(Cl)c2c1CC[C@H]2C(=O)NS(=O)(=O)c1cccc2ccccc12 (single isomer, unassigned) [Example I-86] | +++ (≥350) | > 5.52 |  | 5.00 to 5.52 | ≥ 150 |
| COc1ccc(Cl)c2c1CC[C@@H]2C(=O)NS(=O)(=O)c1cccc2ccccc12 (single isomer, unassigned) [Example I-87] | +++ (≥350) | 5.00 to 5.52 |  | 5.00 to 5.52 | 50 to 150 |
| COc1ccc(C2CCC2)c2c1[C@@H](C(=O)NS(=O)(=O)c1cccc3ccccc13)C2 (single isomer, unassigned) [Example I-106] | +++ (≥350) | > 5.52 |  | 5.00 to 5.52 | ≥ 150 |
| COc1ccc(C2CCC2)c2c1[C@H](C(=O)NS(=O)(=O)c1cccc3ccccc13)C2 (single isomer, unassigned) [Example I-107] | +++ (≥350) | > 5.52 |  | > 5.52 | ≥ 150 |
| COc1ccc(C2CCC2)c2c1[C@@H](C(=O)NS(=O)(=O)c1cccc3cnn(C)c13)CC2 (single isomer, unassigned) [Example I-141] | +++ (≥350) | > 5.52 |  | 5.00 to 5.52 | ≥ 150 |
| COc1ccc(C2CCC2)c2c1[C@H](C(=O)NS(=O)(=O)c1cccc3cnn(C)c13)CC2 (single isomer, unassigned) [Example I-142] | +++ (≥350) | > 5.52 |  | > 5.52 | ≥ 150 |
| COc1ccc(C2CCC2)c2c1[C@@H](C(=O)NS(=O)(=O)c1cccc3cnn(C)c13)C2 (single isomer, unassigned) [Example I-143] | +++ (≥350) | > 5.52 |  | 5.00 to 5.52 | 50 to 150 |
| COc1ccc(C2CCC2)c2c1[C@@H](C(=O)NS(=O)(=O)c1cccc3c1CCCN3)C2 (single isomer, unassigned) [Example I-145] | +++ (≥350) | 5.00 to 5.52 |  | 5.00 to 5.52 | ≥ 150 |
| COc1ccc(C2CCC2)c2c1[C@@H](C(=O)NS(=O)(=O)c1cccc3ncccc13)C2 (single isomer, unassigned) [Example I-147] | +++ (≥350) | > 5.52 |  | 5.00 to 5.52 | ≥ 150 |
| COc1ccc(C2CCC2)c2c1[C@H](C(=O)NS(=O)(=O)c1cccc3ncccc13)C2 (single isomer, unassigned) [Example I-148] | +++ (≥350) | > 5.52 |  | > 5.52 | ≥ 150 |
| Cc1ccccc1S(=O)(=O)NC(=O)[C@H]1CCc2c(Cl)cccc21 (single isomer, unassigned) [II-29] | ++ (≥150 and <350) | > 5.52 |  | 5.00 to 5.52 | 50 to 150 |
| COc1cccc2c1CCC2C(=O)NS(=O)(=O)c1cccc2ccccc12 (stereo not drawn) [Example I-1, 4-methoxy-N-(naphthalene-1-sulfonyl)-2,3-dihydro-1H-indene-1-carboxamide] | +++ (≥350) | 5.00 to 5.52 |  | 5.00 to 5.52 | ≥ 150 |
| O=C(NS(=O)(=O)c1cccc2ccccc12)C1CCCc2cccc(Cl)c21 (stereo not drawn) [Example I-2, 8-chloro-N-(naphthalene-1-sulfonyl)-1,2,3,4-tetrahydronaphthalene-1-carboxamide] | +++ (≥350) | > 5.52 |  | 5.00 to 5.52 | ≥ 150 |
| COc1cccc2c1CCC[C@H]2C(=O)NS(=O)(=O)c1cccc2ccccc12 [Example I-3, (1R)-5-methoxy-N-(naphthalene-1-sulfonyl)-1,2,3,4-tetrahydronaphthalene-1-carboxamide] | +++ (≥350) | 5.00 to 5.52 |  | 5.00 to 5.52 | ≥ 150 |
| COc1cccc2c1CCCC2C(=O)NS(=O)(=O)c1cccc2ccccc12 (stereo not drawn) [Example I-4, 5-methoxy-N-(naphthalene-1-sulfonyl)-1,2,3,4-tetrahydronaphthalene-1-carboxamide] | +++ (≥350) | 5.00 to 5.52 |  | 5.00 to 5.52 | ≥ 150 |
| O=C(NS(=O)(=O)c1cccc2ccccc12)C1(Cc2ccccc2)CCc2c(Cl)cccc21 (stereo not drawn) [Example I-5, 1-benzyl-4-chloro-N-(naphthalene-1-sulfonyl)-2,3-dihydro-1H-indene-1-carboxamide] | +++ (≥350) | > 5.52 |  | > 5.52 | ≥ 150 |
| COc1cccc2c1CC[C@@]2(C)C(=O)NS(=O)(=O)c1cccc2ccccc12 [Example I-6, (1R)-4-methoxy-1-methyl-N-(naphthalene-1-sulfonyl)-2,3-dihydro-1H-indene-1-carboxamide] | +++ (≥350) | 5.00 to 5.52 |  | 5.00 to 5.52 | ≥ 150 |
| CCC1(C(=O)NS(=O)(=O)c2cccc3ccccc23)CCc2c(Cl)cccc21 (stereo not drawn) [Example I-7, 4-chloro-1-ethyl-N-(naphthalene-1-sulfonyl)-2,3-dihydro-1H-indene-1-carboxamide] | +++ (≥350) | > 5.52 |  | > 5.52 | ≥ 150 |
| O=C(NS(=O)(=O)c1cccc2ccccc12)C1CCc2c(Cl)cccc21 (stereo not drawn) [Example I-8, 4-chloro-N-(naphthalene-1-sulfonyl)-2,3-dihydro-1H-indene-1-carboxamide] | +++ (≥350) | 5.00 to 5.52 |  | 5.00 to 5.52 | ≥ 150 |
| CCCCC1(C(=O)NS(=O)(=O)c2cccc3ccccc23)CCc2c(Cl)cccc21 (stereo not drawn) [Example I-30, 1-butyl-4-chloro-N-(naphthalene-1-sulfonyl)-2,3-dihydro-1H-indene-1-carboxamide] | +++ (≥350) | > 5.52 |  |  |  |
